In PubChem BioAssay AID248 (DTP/NCI, 2004):
Several values for one entry are separate records, joined by “and”; a condition that tells them apart may be missing. Equal entries are not always repeated. Toxic doses and inconclusive results are not listed. Cut-off read from the data, not from the text of the source: active = T/C of 150% or more; inactive = T/C below 125%.

Tested on: L1210 leukemia ip in BDF1 mice, survival T/C
Test: NCI In Vivo Anticancer Drug Screen. Data for tumor model L1210 Leukemia (intraperitoneal) in B6D2F1 (BDF1) mice
Details: endpoint: mean survival time, higher = longer survival
In short: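 Tumor was transplanted into mice, which were then dosed with test compound or vehicle alone. Survival was recorded for each group, and the treated figure was expressed relative to the control figure.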

[1] = dose: 100.0 mg/kg/injection, schedule: Q04DX003 (ip), vehicle: Klucel (hydroxypropylcellulose) (HPC)
[2] = dose: 200.0 mg/kg/injection, schedule: Q04DX003 (ip), vehicle: Klucel (hydroxypropylcellulose) (HPC)
[3] = dose: 400.0 mg/kg/injection, schedule: Q04DX003 (ip), vehicle: Klucel (hydroxypropylcellulose) (HPC)
[4] = dose: 100.0 mg/kg/injection, schedule: Q01DX001 (ip), vehicle: saline
[5] = dose: 200.0 mg/kg/injection, schedule: Q01DX001 (ip), vehicle: saline
[6] = dose: 400.0 mg/kg/injection, schedule: Q01DX001 (ip), vehicle: saline
[7] = dose: 100.0 mg/kg/injection, schedule: Q01DX009 (ip), vehicle: saline
[8] = dose: 100.0 mg/kg/injection, schedule: Q04DX003 (ip), vehicle: saline
[9] = dose: 100.0 mg/kg/injection, schedule: Q01DX009 (ip), vehicle: saline with Tween-80
[10] = dose: 100.0 mg/kg/injection, schedule: Q04DX002 (ip), vehicle: saline with Tween-80
[11] = dose: 100.0 mg/kg/injection, schedule: Q04DX003 (ip), vehicle: saline with Tween-80
[12] = dose: 200.0 mg/kg/injection, schedule: Q01DX009 (ip), vehicle: saline with Tween-80
[13] = dose: 200.0 mg/kg/injection, schedule: Q04DX002 (ip), vehicle: saline with Tween-80
[14] = dose: 200.0 mg/kg/injection, schedule: Q04DX003 (ip), vehicle: saline with Tween-80
[15] = dose: 400.0 mg/kg/injection, schedule: Q01DX009 (ip), vehicle: saline with Tween-80
[16] = dose: 400.0 mg/kg/injection, schedule: Q04DX002 (ip), vehicle: saline with Tween-80
[17] = dose: 400.0 mg/kg/injection, schedule: Q04DX003 (ip), vehicle: saline with Tween-80
[18] = dose: 50.0 mg/kg/injection, schedule: Q01DX001 (ip), vehicle: carboxymethylcellulose (CMC)
[19] = dose: 200.0 mg/kg/injection, schedule: Q01DX001 (ip), vehicle: carboxymethylcellulose (CMC)
[20] = dose: 100.0 mg/kg/injection, schedule: Q01DX001 (ip), vehicle: carboxymethylcellulose (CMC)

Measured: T/C

Nc1c(Cl)cc(S(N)(=O)=O)cc1Cl
inactive: dose: 100.0 mg/kg/injection, schedule: Q01DX009 (ip), vehicle: other 98 % of control | dose: 100.0 mg/kg/injection, schedule: Q04DX003 (ip), vehicle: other 100 % of control | dose: 200.0 mg/kg/injection, schedule: Q01DX009 (ip), vehicle: other 91 % of control | dose: 200.0 mg/kg/injection, schedule: Q04DX003 (ip), vehicle: other 98 % of control | dose: 400.0 mg/kg/injection, schedule: Q04DX003 (ip), vehicle: other 98 % of control

OC1CCCC/C1=C/c1ccccc1 (stereo unspecified)
inactive: dose: 100.0 mg/kg/injection, schedule: Q01DX009 (ip), vehicle: Klucel (hydroxypropylcellulose) (HPC) 101 % of control | [1] 103 % of control | dose: 200.0 mg/kg/injection, schedule: Q01DX009 (ip), vehicle: Klucel (hydroxypropylcellulose) (HPC) 101 % of control | [2] 101 % of control | dose: 400.0 mg/kg/injection, schedule: Q01DX009 (ip), vehicle: Klucel (hydroxypropylcellulose) (HPC) 101 % of control | [3] 95 % of control

Cc1cccc2c1SCCC2=O
inactive: [4] 92 % of control | [5] 92 % of control | [6] 89 % of control

O=c1c(=O)c2ccccc2c(=O)/c1=N/Nc1ccccc1
inactive: dose: 100.0 mg/kg/injection, schedule: Q01DX001 (ip), vehicle: water 98 % of control | dose: 200.0 mg/kg/injection, schedule: Q01DX001 (ip), vehicle: water 95 % of control | dose: 400.0 mg/kg/injection, schedule: Q01DX001 (ip), vehicle: water 97 % of control

C#CCOC(=O)CCC(=O)OCC#C
inactive: [4] 103 % of control | [7] 94 % of control | [8] 94 % of control | [5] 100 % of control | dose: 200.0 mg/kg/injection, schedule: Q01DX009 (ip), vehicle: saline 97 % of control | dose: 200.0 mg/kg/injection, schedule: Q04DX003 (ip), vehicle: saline 96 % of control | [6] 100 % of control | dose: 400.0 mg/kg/injection, schedule: Q01DX009 (ip), vehicle: saline 94 % of control | dose: 400.0 mg/kg/injection, schedule: Q04DX003 (ip), vehicle: saline 98 % of control

CC1Cc2cccc3cc4c(ccc5ccccc54)c1c23 (stereo unspecified)
inactive: dose: 100.0 mg/kg/injection, schedule: Q01DX001 (ip), vehicle: Klucel (hydroxypropylcellulose) (HPC) 98 % of control and 104 % of control | dose: 200.0 mg/kg/injection, schedule: Q01DX001 (ip), vehicle: Klucel (hydroxypropylcellulose) (HPC) 97 % of control and 103 % of control | dose: 400.0 mg/kg/injection, schedule: Q01DX001 (ip), vehicle: Klucel (hydroxypropylcellulose) (HPC) 95 % of control and 110 % of control

CCC(=O)c1ccc(OC(=O)Nc2ccc(Cl)cc2[N+](=O)[O-])cc1
inactive: [9] 100 % of control and 92 % of control | [10] 97 % of control and 113 % of control | [11] 102 % of control | [12] 96 % of control and 103 % of control | [13] 97 % of control and 91 % of control | [14] 95 % of control | [15] 92 % of control | [16] 95 % of control and 92 % of control | [17] 97 % of control

C=CCCCCCCCCC(=O)NCC1CCCCO1 (stereo unspecified)
inactive: [9] 94 % of control | [12] 97 % of control | [15] 101 % of control

C1=Cc2ccccc2Sc2ccccc21
inactive: [18] 98 % of control | [19] 98 % of control

CCOC(=O)C1CCc2c(ccc3ccccc23)N1 (stereo unspecified)
inactive: [18] 100 % of control | dose: 50.0 mg/kg/injection, schedule: Q01DX009 (ip), vehicle: carboxymethylcellulose (CMC) 102 % of control and 91 % of control | dose: 50.0 mg/kg/injection, schedule: Q04DX002 (ip), vehicle: carboxymethylcellulose (CMC) 100 % of control and 106 % of control | dose: 50.0 mg/kg/injection, schedule: Q04DX003 (ip), vehicle: carboxymethylcellulose (CMC) 105 % of control | [20] 105 % of control | dose: 100.0 mg/kg/injection, schedule: Q01DX009 (ip), vehicle: carboxymethylcellulose (CMC) 94 % of control and 112 % of control | dose: 100.0 mg/kg/injection, schedule: Q04DX002 (ip), vehicle: carboxymethylcellulose (CMC) 100 % of control and 106 % of control | dose: 100.0 mg/kg/injection, schedule: Q04DX003 (ip), vehicle: carboxymethylcellulose (CMC) 107 % of control | [19] 103 % of control | dose: 200.0 mg/kg/injection, schedule: Q01DX009 (ip), vehicle: carboxymethylcellulose (CMC) 94 % of control and 102 % of control | dose: 200.0 mg/kg/injection, schedule: Q04DX002 (ip), vehicle: carboxymethylcellulose (CMC) 97 % of control and 102 % of control | dose: 200.0 mg/kg/injection, schedule: Q04DX003 (ip), vehicle: carboxymethylcellulose (CMC) 96 % of control

CC(C)(C)OC(=O)C(CC(=O)O)NC(=O)OCc1ccccc1 (stereo unspecified) (tested in a mixture with another compound)
inactive: dose: 25.0 mg/kg/injection, schedule: Q01DX009 (ip), vehicle: saline 101 % of control | dose: 25.0 mg/kg/injection, schedule: Q04DX003 (ip), vehicle: saline 94 % of control | dose: 50.0 mg/kg/injection, schedule: Q01DX009 (ip), vehicle: saline 104 % of control | dose: 50.0 mg/kg/injection, schedule: Q04DX003 (ip), vehicle: saline 94 % of control | [7] 106 % of control | [8] 100 % of control and 91 % of control

CC(=O)COc1cccc(Cl)c1
inactive: [1] 104 % of control | [2] 98 % of control | [3] 97 % of control

CCN(CCO)c1ccc(N=O)cc1
inactive: dose: 5.0 mg/kg/injection, schedule: Q01DX001 (ip), vehicle: saline 95 % of control | dose: 10.0 mg/kg/injection, schedule: Q01DX001 (ip), vehicle: saline 101 % of control | dose: 50.0 mg/kg/injection, schedule: Q01DX001 (ip), vehicle: saline 90 % of control

COc1cc(CC#N)ccc1C
inactive: dose: 12.5 mg/kg/injection, schedule: Q01DX009 (ip), vehicle: alcohol 104 % of control | dose: 25.0 mg/kg/injection, schedule: Q01DX009 (ip), vehicle: alcohol 98 % of control | dose: 50.0 mg/kg/injection, schedule: Q01DX009 (ip), vehicle: alcohol 101 % of control

Clc1ccccc1-c1nc2ccccc2cc1Cl
inactive: [4] 92 % of control | [5] 88 % of control | [6] 94 % of control

CCOP(=O)(NC=S)OCC
inactive: dose: 75.0 mg/kg/injection, schedule: Q01DX001 (ip), vehicle: saline 96 % of control

CCCCSc1nc(SCCCC)nc(SCCCC)n1
inactive: [10] 96 % of control | [13] 111 % of control | [16] 89 % of control

O=C1C(Cl)=C(Nc2ccccc2Cl)C(=O)C(Cl)=C1Nc1ccccc1Cl
inactive: [18] 101 % of control | [20] 101 % of control | [11] 95 % of control | [19] 90 % of control | [14] 98 % of control | dose: 400.0 mg/kg/injection, schedule: Q01DX001 (ip), vehicle: carboxymethylcellulose (CMC) 95 % of control | [17] 98 % of control

Cc1ccc(NC(=O)c2cc3ccccc3cc2O)c(C)c1
inactive: dose: 100.0 mg/kg/injection, schedule: Q01DX001 (ip), vehicle: other 92 % of control | [1] 100 % of control | dose: 200.0 mg/kg/injection, schedule: Q01DX001 (ip), vehicle: other 92 % of control | [2] 94 % of control | dose: 400.0 mg/kg/injection, schedule: Q01DX001 (ip), vehicle: other 92 % of control | [3] 105 % of control

N#CSc1nc2ccccc2s1
inactive: dose: 6.0 mg/kg/injection, schedule: Q01DX001 (ip), vehicle: saline 88 % of control | dose: 12.0 mg/kg/injection, schedule: Q01DX001 (ip), vehicle: saline 89 % of control | dose: 25.0 mg/kg/injection, schedule: Q01DX001 (ip), vehicle: saline 98 % of control | dose: 25.0 mg/kg/injection, schedule: Q04DX003 (ip), vehicle: saline with Tween-80 92 % of control | dose: 50.0 mg/kg/injection, schedule: Q04DX003 (ip), vehicle: saline with Tween-80 91 % of control | [11] 96 % of control
